Source: patent publication US20240165241A1, “TARGETED DELIVERY OF DRUG MOLECULES WITH DRUG LIGANDS CONJUGATED TO RNA NANOPARTICLE MOTION ELEMENTS” (Ohio State Innovation Foundation, priority 2022, published 2024)

Tests used:
[1] = Water solubility of SN38 after conjugation to RNA (absorbance at 366 nm); format: physicochemical; settings: absorbance at 366 nm versus concentration 12.5-800 μM
Procedure: Three solutions were prepared, RNA-SN38 in DEPC H2O, SN38 in DEPC H2O, and SN38 in DMSO. The absorbance at 366 nm of these three solutions with different concentrations (12.5-800 μM) were measured by NanoDrop 2000 Spectrophotometer (ThermoFisher). […] The picture of RNA-SN38 and SN38 in DEPC H2O at 800 μM were taken for comparison of clarity and turbidity.

KB cells = experiment: PI/Annexin V-FITC apoptosis assay; format: cell-based; settings: 500 nM, 24 hr
Procedure: Cell apoptosis effect induced by RNA nanoparticles was evaluated using FITC Annexin V Apoptosis Detection Kit (BD Pharmingen) following manufacturer instructions. Briefly, 5×10^4 KB cells were seeded on a 24-well plate overnight. RNA nanoparticles and free MTX were added into 24-well plate at a final concentration of 500 nM. After a 24 hr incubation at 37° C. in a humidified 5% CO2 environment, cells were trypsinized to single cell suspension, washed with PBS buffer twice, and resuspended in 100 μL 1× Annexin V-FITC binding buffer. Following this 5 μL of Annexin V-FITC and 5 μL of PI were added into each sample and incubated at room temperature for 15 min. The samples were then transferred into flow tubes that contained 200 μL of 1× binding buffer for FACS analysis by FACS Calibur™ flow cytometer within 1 hr. Data were analyzed by FlowJo.

Row | Compound | solubility in water [1] | cells underwent apoptosis (KB cells) [%]
1 | CCc1c2c(nc3ccc(O)cc13)-c1cc3c(c(=O)n1C2)COC(=O)[C@]3(O)CC [SN38, 7-Ethyl-10-hydroxycamptothecin] | poor water solubility | 
2 | CN(Cc1cnc2nc(N)nc(N)c2n1)c1ccc(C(=O)N[C@@H](CCC(=O)O)C(=O)O)cc1 [MTX, Methotrexate] |  | 69.4
